How the values were obtained:
Candida albicans = experiment: Colony colour or fluorescence on gelled medium of Example 1; assay type: cell-based; conditions: medium of Example 1, substrate 200 mg/l, 37° C., 24 or 48 hours, ambient light and UV 365 nm
Method: (§1) L-Pro-BIA, or 7-L-prolylamino-4-methylcoumarin (L-Pro-AMC) is added to this medium at a concentration of 200 mg/l. The various media obtained, which are distributed in Petri dishes, are inoculated with microorganisms. The dishes were incubated at 37° C. for 48 hours. The colonies formed were examined visually in ambient light and under a UV lamp (wavelength=365 nm) after incubation for 24 and 48 hours. The colour or the presence of fluorescence was noted. The microorganisms studied were: Pseudomonas aeruginosa and Candida albicans.

Pseudomonas aeruginosa = experiment: as above; assay type: cell-based; conditions: medium of Example 1, substrate 200 mg/l, 37° C., 24 or 48 hours, ambient light and UV 365 nm
Method: as §1

P. aeruginosa [1] = experiment: Coloration or fluorescence in phosphate buffer, microtitration plates (Example 2); assay type: cell-based, Pseudomonas aeruginosa; conditions: 0.1 M phosphate buffer pH 7.3, substrate 400 mg/L, 37° C., 24 to 48 hours
Method: (§2) L-Pro-BIA or L-Pro-AMC is added, at the concentration of 400 mg/L, to a 0.1 M phosphate buffer, pH 7.3, at 25° C. The medium obtained is distributed into the wells of microtitration plates which are inoculated with suspensions of P. aeruginosa or of C. albicans. The plates are incubated for 24 hours at 37° C. The wells are examined visually in ambient light and under a UV lamp, after incubation for 24 to 48 hours.

C. albicans [2] = experiment: as above; assay type: cell-based, Candida albicans; conditions: 0.1 M phosphate buffer pH 7.3, substrate 400 mg/L, 37° C., 24 to 48 hours
Method: as §2

E. coli [3] = experiment: Colony colour on gelled medium of Example 3; assay type: cell-based, Escherichia coli; design: key: —: Absence of coloration; Brown = Colony colour; conditions: 37° C.
Method: (§3) L-Pro-BIA, pyroglutamyl-BIA (Pyr-BIA) or Ala-Phe-Pro-BIA is added to this medium. These various media, which are distributed into Petri dishes, are inoculated with various microorganisms: E. coli, K. pneumoniae, C. freundii, p. aeruginosa, S. agalactiae, E. faecium, S. pyogenes, S. epidermidis, C. albicans and C. tropicalis. The dishes are incubated at 37° C. for 48 hours, and the colonies formed are examined visually after incubation for 24 and 48 hours. The colour was noted.

K. pneumoniae [4] = experiment: Colony colour on gelled medium of Example 3; assay type: cell-based, Klebsiella Pneumoniae; design: key: —: Absence of coloration; Brown = Colony colour; conditions: 37° C.
Method: as §3

C. freundii [5] = experiment: Colony colour on gelled medium of Example 3; assay type: cell-based, Citrobacter freundii; design: key: —: Absence of coloration; Brown = Colony colour; conditions: 37° C.
Method: as §3

P. aeruginosa [6] = experiment: Colony colour on gelled medium of Example 3; assay type: cell-based, Pseudomonas aeruginosa; design: key: —: Absence of coloration; Brown = Colony colour; conditions: 37° C.
Method: as §3

C. albicans [7] = experiment: Colony colour on gelled medium of Example 3; assay type: cell-based, Candida albicans; design: key: —: Absence of coloration; Brown = Colony colour; conditions: 37° C.
Method: as §3

C. tropicalis = experiment: Colony colour on gelled medium of Example 3; assay type: cell-based; design: key: —: Absence of coloration; Brown = Colony colour; conditions: 37° C.
Method: as §3

[8] = system: genera Escherichia, Klebsiella, Citrobacter, Pseudomonas, Enterococcus, Staphylococcus and Streptococcus; experiment: Preliminary tests in the medium described in Example 1; assay type: cell-based; conditions: for revelation of a peptidase activity: medium of Example 1 with addition of the reagents proposed by Lojda and Havrankova (tetrazolium salt and phenazine methosulphate); for leucine-aminopeptidase or proline-aminopeptidase activity demonstrated: substrate added to the medium of Example 1
Method: In the course of the studies which lead to the present invention, an investigation was, carried out as to whether it was possible to use this enzymatic substrate for detecting microorganisms cultured, in particular, on gelled media. During preliminary tests, L-Leu-BIA or L-Pro-BIA was added to a medium currently used to search for osidases, which is described in Example 1 below.
Similarly, in this medium, with osidase substrates (5-bromo-4-chloro-3-indolyl-β-D-galactoside and 6-chloro-3-indolyl-β-D-glucuronide), the β-galactos-idase and β-glucuronidase activities of the microorganisms can be detected.

Escherichia coli = experiment: Colony colour or fluorescence on gelled medium of Example 1; assay type: cell-based; conditions: medium of Example 1, substrate 200 mg/L, 24 or 48 hours
Klebsiella Pneumoniae = experiment: as above; assay type: cell-based; conditions: medium of Example 1, substrate 200 mg/L, 24 or 48 hours
Citrobacter freundii = experiment: as above; assay type: cell-based; conditions: medium of Example 1, substrate 200 mg/L, 24 or 48 hours
Streptococcus agalactiae = experiment: as above; assay type: cell-based; conditions: medium of Example 1, substrate 200 mg/L, 24 or 48 hours
Enterococcus faecium = experiment: as above; assay type: cell-based; conditions: medium of Example 1, substrate 200 mg/L, 24 or 48 hours
Streptococcus pyogenes = experiment: as above; assay type: cell-based; conditions: medium of Example 1, substrate 200 mg/L, 24 or 48 hours
[9] = system: Staphylococcus epidermidis; experiment: as above; assay type: cell-based; conditions: medium of Example 1, substrate 200 mg/L, 24 or 48 hours
S. agalactiae [10] = experiment: Colony colour on gelled medium of Example 3; assay type: cell-based, Streptococcus agalactiae; design: key: —: Absence of coloration; Brown = Colony colour; conditions: 37° C.
Method: as §3

E. faecium [11] = experiment: Colony colour on gelled medium of Example 3; assay type: cell-based, Enterococcus faecium; design: key: —: Absence of coloration; Brown = Colony colour; conditions: 37° C.
Method: as §3

S. pyogenes [12] = experiment: Colony colour on gelled medium of Example 3; assay type: cell-based, Streptococcus pyogenes; design: key: —: Absence of coloration; Brown = Colony colour; conditions: 37° C.
Method: as §3

E. coli [13] = experiment: Coloration or fluorescence in phosphate buffer, microtitration plates (Example 2); assay type: cell-based, Escherichia coli; conditions: 0.1 M phosphate buffer pH 7.3, 24 to 48 hours
K. pneumoniae [14] = experiment: as above; assay type: cell-based, Klebsiella Pneumoniae; conditions: 0.1 M phosphate buffer pH 7.3, 24 to 48 hours
C. freundii [15] = experiment: as above; assay type: cell-based, Citrobacter freundii; conditions: 0.1 M phosphate buffer pH 7.3, 24 to 48 hours
S. agalactiae [16] = experiment: as above; assay type: cell-based, Streptococcus agalactiae; conditions: 0.1 M phosphate buffer pH 7.3, 24 to 48 hours
E. faecium [17] = experiment: as above; assay type: cell-based, Enterococcus faecium; conditions: 0.1 M phosphate buffer pH 7.3, 24 to 48 hours
S. pyogenes [18] = experiment: as above; assay type: cell-based, Streptococcus pyogenes; conditions: 0.1 M phosphate buffer pH 7.3, 24 to 48 hours
S. epidermidis = experiment: Colony colour on gelled medium of Example 3; assay type: cell-based, Staphylococcus epidermidis; design: key: —: Absence of coloration; Brown = Colony colour; conditions: 37° C.
Method: as §3

## O=C(Nc1c[nH]c2ccc(Br)cc12)[C@@H]1CCCN1 [L-Pro-BIA]
Candida albicans
  peptidase activity revealed by colour or fluorescence of the colonies: no coloration
Pseudomonas aeruginosa
  peptidase activity revealed by colour or fluorescence of the colonies: no coloration
P. aeruginosa [1]
  peptidase activity revealed by coloration or fluorescence of the wells: No coloration
C. albicans [2]
  peptidase activity revealed by coloration or fluorescence of the wells: No coloration
E. coli [3]; 24 H
  Colony colour: —^1
E. coli [3]; 48 H
  Colony colour: —
K. pneumoniae [4]; 24 H
  Colony colour: —
K. pneumoniae [4]; 48 H
  Colony colour: —
C. freundii [5]; 24 H
  Colony colour: —
C. freundii [5]; 48 H
  Colony colour: —
P. aeruginosa [6]; 24 H
  Colony colour: Brown
P. aeruginosa [6]; 48 H
  Colony colour: Brown
C. albicans [7]; 24 H
  Colony colour: Brown
C. albicans [7]; 48 H
  Colony colour: Brown
C. tropicalis; 24 H
  Colony colour: —
C. tropicalis; 48 H
  Colony colour: —
[8]
  revelation of a peptidase activity: without allowing the revelation of a peptidase activity
  leucine-aminopeptidase or proline-aminopeptidase activity demonstrated: not possible to demonstrate

## C[C@H](N)C(=O)Nc1c[nH]c2ccc(Br)cc12 [L-Ala-BIA]
Pseudomonas aeruginosa
  peptidase activity revealed by colour or fluorescence of the colonies: no coloration
Escherichia coli
  peptidase activity revealed by colour or fluorescence of the colonies: no coloration
Klebsiella Pneumoniae
  peptidase activity revealed by colour or fluorescence of the colonies: no coloration
Citrobacter freundii
  peptidase activity revealed by colour or fluorescence of the colonies: no coloration
Streptococcus agalactiae
  peptidase activity revealed by colour or fluorescence of the colonies: no coloration
Enterococcus faecium
  peptidase activity revealed by colour or fluorescence of the colonies: no coloration
Streptococcus pyogenes
  peptidase activity revealed by colour or fluorescence of the colonies: no coloration
[9]
  peptidase activity revealed by colour or fluorescence of the colonies: no coloration

## Cc1cc(=O)oc2cc(NC(=O)[C@@H]3CCCN3)ccc12 [L-Pro-AMC, 7-L-prolylamino-4-methylcoumarin]
Candida albicans
  peptidase activity revealed by colour or fluorescence of the colonies: emission of a fluorescence
Pseudomonas aeruginosa
  peptidase activity revealed by colour or fluorescence of the colonies: emission of a fluorescence
P. aeruginosa [1]
  peptidase activity revealed by coloration or fluorescence of the wells: possible to reveal an L-Pro-aminopeptidase activity
C. albicans [2]
  peptidase activity revealed by coloration or fluorescence of the wells: possible to reveal an L-Pro-aminopeptidase activity
[8]
  leucine-aminopeptidase or proline-aminopeptidase activity demonstrated: a fluorescence

## CC(N)C(=O)NC(Cc1ccccc1)C(=O)N1CCCC1C(=O)Nc1c[nH]c2ccc(Br)cc12 (stereo not drawn) [Ala-Phe-Pro-BIA]
E. coli [3]; 24 H
  Colony colour: Brown^2
E. coli [3]; 48 H
  Colony colour: Brown
K. pneumoniae [4]; 24 H
  Colony colour: Brown
K. pneumoniae [4]; 48 H
  Colony colour: Brown
C. freundii [5]; 24 H
  Colony colour: Brown
C. freundii [5]; 48 H
  Colony colour: Brown
P. aeruginosa [6]; 24 H
  Colony colour: Brown
P. aeruginosa [6]; 48 H
  Colony colour: Brown
S. agalactiae [10]; 24 H
  Colony colour: Brown
S. agalactiae [10]; 48 H
  Colony colour: Brown
E. faecium [11]; 24 H
  Colony colour: —
E. faecium [11]; 48 H
  Colony colour: —
S. pyogenes [12]; 24 H
  Colony colour: Brown
S. pyogenes [12]; 48 H
  Colony colour: Brown

## CC(C)C[C@H](N)C(=O)Nc1c[nH]c2ccc(Br)cc12 [L-Leu-BIA, 3-L-leucylamino-5-bromoindole]
Pseudomonas aeruginosa
  peptidase activity revealed by colour or fluorescence of the colonies: no coloration
Escherichia coli
  peptidase activity revealed by colour or fluorescence of the colonies: no coloration
Klebsiella Pneumoniae
  peptidase activity revealed by colour or fluorescence of the colonies: no coloration
Citrobacter freundii
  peptidase activity revealed by colour or fluorescence of the colonies: no coloration
Streptococcus agalactiae
  peptidase activity revealed by colour or fluorescence of the colonies: no coloration
Enterococcus faecium
  peptidase activity revealed by colour or fluorescence of the colonies: no coloration
Streptococcus pyogenes
  peptidase activity revealed by colour or fluorescence of the colonies: no coloration
[9]
  peptidase activity revealed by colour or fluorescence of the colonies: no coloration
P. aeruginosa [1]
  peptidase activity revealed by coloration or fluorescence of the wells: did not make it possible to detect
E. coli [13]
  peptidase activity revealed by coloration or fluorescence of the wells: did not make it possible to detect
K. pneumoniae [14]
  peptidase activity revealed by coloration or fluorescence of the wells: did not make it possible to detect
C. freundii [15]
  peptidase activity revealed by coloration or fluorescence of the wells: did not make it possible to detect
S. agalactiae [16]
  peptidase activity revealed by coloration or fluorescence of the wells: did not make it possible to detect
E. faecium [17]
  peptidase activity revealed by coloration or fluorescence of the wells: did not make it possible to detect
S. pyogenes [18]
  peptidase activity revealed by coloration or fluorescence of the wells: did not make it possible to detect
[8]
  revelation of a peptidase activity: without allowing the revelation of a peptidase activity
  leucine-aminopeptidase or proline-aminopeptidase activity demonstrated: not possible to demonstrate

## Cc1cc(=O)oc2cc(NC(=O)[C@@H](N)CC(C)C)ccc12 [L-Leu-AMC, 7-L-leucylamino-4-methylcoumarin]
P. aeruginosa [1]
  peptidase activity revealed by coloration or fluorescence of the wells: detected, by emission of fluorescence
E. coli [13]
  peptidase activity revealed by coloration or fluorescence of the wells: detected, by emission of fluorescence
K. pneumoniae [14]
  peptidase activity revealed by coloration or fluorescence of the wells: detected, by emission of fluorescence
C. freundii [15]
  peptidase activity revealed by coloration or fluorescence of the wells: detected, by emission of fluorescence
S. agalactiae [16]
  peptidase activity revealed by coloration or fluorescence of the wells: detected, by emission of fluorescence
E. faecium [17]
  peptidase activity revealed by coloration or fluorescence of the wells: detected, by emission of fluorescence
S. pyogenes [18]
  peptidase activity revealed by coloration or fluorescence of the wells: detected, by emission of fluorescence
[8]
  leucine-aminopeptidase or proline-aminopeptidase activity demonstrated: a fluorescence

## O=C1CCC(C(=O)Nc2c[nH]c3ccc(Br)cc23)N1 (centres unmarked) [Pyr-BIA, pyroglutamyl-BIA]
E. coli [3]; 24 H
  Colony colour: —
E. coli [3]; 48 H
  Colony colour: —
K. pneumoniae [4]; 24 H
  Colony colour: —
K. pneumoniae [4]; 48 H
  Colony colour: Brown
C. freundii [5]; 24 H
  Colony colour: —
C. freundii [5]; 48 H
  Colony colour: Brown
P. aeruginosa [6]; 24 H
  Colony colour: Brown
P. aeruginosa [6]; 48 H
  Colony colour: Brown
S. agalactiae [10]; 24 H
  Colony colour: —
S. agalactiae [10]; 48 H
  Colony colour: —
E. faecium [11]; 24 H
  Colony colour: Brown
E. faecium [11]; 48 H
  Colony colour: Brown
S. pyogenes [12]; 24 H
  Colony colour: Brown
S. pyogenes [12]; 48 H
  Colony colour: Brown
S. epidermidis; 24 H
  Colony colour: —
S. epidermidis; 48 H
  Colony colour: —

Source: patent US6649365B1, “Indolamine derivatives for detecting peptidase activity in culture media” (Bio Merieux, priority 1998, dated 2003)
